Publication PMC11124341, “4-Hydroxybenzoic Acid-Based Hydrazide–Hydrazones as Potent Growth Inhibition Agents of Laccase-Producing Phytopathogenic Fungi That Are Useful in the Protection of Oilseed Crops” (Molecules, 2024)

Tests used:
[1] = system: Balb/3T3 cells; test: Antiproliferative assay in vitro (SRB); type: cell-based, mouse; details: Mus musculus, BALB/3T3; 72 h exposure, SRB method; read-out: Average IC50 ± SD, Balb/3T3 line
Protocol: Antiproliferative tests were performed on a normal human breast cell line, MCF-10A, and a mouse embryonic fibroblast: Balb/3T3. Both cell lines were obtained from the American Type Culture Collection (Rockville, MD, USA). The cell lines were maintained in the Institute of Immunology and Experimental Therapy, Wroclaw, Poland. MCF-10A cells were cultured in the F-12 nutrient mixture (Gibco, Scotland, UK), supplemented with 5% horse serum (Gibco, Scotland, UK), […] (Vibrio cholerae Pacini), 10 μg/mL of hydrocortisone and 20 ng/mL of human epidermal growth factor (all from Sigma-Aldrich, Chemie GmbH, Steinheim, Germany). Balb/3T3 cells were cultured in Dulbecco medium (Gibco, Darmstadt, Germany) supplemented with 10% fetal bovine serum (Thermo Fisher Scientific, Waltham, MA, USA) and 2 mM l-glutamine (Sigma-Aldrich, St. Louis, MO, USA). All culture media contained antibiotics: 100 U/mL penicillin (Sigma-Aldrich, St. Louis, MO, USA) and 100 µg/mL streptomycin (Polfa-Tarchomin, Warsaw, Poland). Both cell lines were cultured during the entire experiment in a humid atmosphere at 37 °C and 5% CO2. Amistar 250 SC (fungicide) with active compound azoxystrobin was provided by the Institute of Soil Science and Plant Cultivation, National Research Institute in Pulawy, Department of Weed Science and Tillage Systems in Wroclaw, Poland […].
Twenty-four hours prior to the applications of the tested compounds, MCF-10A and Balb/3T3 cells were plated in 96-well plates at a density of 10^4 cells per well and cultured at 37 °C in a humid atmosphere saturated with 5% CO2 for 24 h. Stock solutions of the compounds were prepared ex tempore for each test by dissolving in DMSO. The cells were also exposed to the reference drugs: cis-platin (Accord, London, UK) (10–0.01 µg/mL) and DMSO (Sigma-Aldrich) (at the concentrations corresponding to those in the tested agent dilutions). The solutions were then diluted in culture medium RPMI 1640 + Opti-MEM (1:1) (both from Gibco, Scotland, UK), supplemented with 2 mM l-glutamine, 5% fetal bovine serum (all from Sigma-Aldrich Chemie GmbH, Steinheim, Germany). An assay was performed after 72 h of exposure to the tested compounds 13, 17, 18, 19, 25, 27, 30, 4-hba, 4-hbah, and 3,4,5-hba (0.5, 5.0, 50, and to 500 µM) and azoxystrobin fungicide (0.05, 0.5, 5.0 and 50 µM). The antiproliferative effect in vitro was determined by the SRB method (sulforhodamine B colorimetric assay). The optical densities of the samples were measured on the Synergy H4 photometer (BioTek Instruments, Winooski, VT, USA) at 540 nm. The results were calculated as 50% inhibitory concentration (IC50), namely the dose of the tested compound inhibiting proliferation of the tested cells by 50% as compared to the untreated control cells, in the Prolab-3 system based on Cheburator 0.4 software using the two-point method. Each test was repeated 3–5 times.
Cytotoxicity was performed on two normal cell lines: MCF -10A and Balb/3T3, using as controls cis-platin in the concentrations of 0.03 32, 0.3 32, 3.32 and 33.2 µM and azoxystrobin fungicide in the […]
were tested in the concentrations of 0.5, 5.0, 50, and 500 µM. The relation of compound concentration […]
Further, a comparison of the influence of each tested concentration in the group of tested compounds on cell lines was illustrated in Figure S130 a (MCF-10A) and b (Balb/T3T).
Table S4. Cytotoxicity results for compounds 13, 17, 18, 19, 25, 27, and 30 investigated on normal mammalian lines: MCF -10A and B alb/3T3 using Azoxystrobin (fungicide) and cis-platin as reference compounds.
Cytotoxicity profile presented as proliferation inhibition, % (y -axis) in the function of compound concentration, […]
Structure MCF-10A Balb/3T3
Proliferation inhibition [%] […]

[2] = system: rapeseed (Brassica napus L. var. napus) seeds; test: Phytotest 1: phytotoxicity, seed germination and root growth; type: in vivo; details: 50 µg/mL; versus water–ethanol 0.5% (v/v) control; <90% inhibition, 90–110% no effect, >110% stimulation
Excerpt: (§1) In the experiments with plants, two aspects were taken under consideration: (1) phytotoxicity, which determined the toxicity of the hydrazide–hydrazones on seed germination and root growth, and (2) study on the behavior of seeds in the presence of the tested hydrazide–hydrazones and pathogens producing laccase (B. cinerea and S. sclerotiorum). The non-coated seeds of Linum usitatissimum, Helianthus annuus, and Brassica napus var. napus were provided by the Institute of Soil Science and Plant Cultivation, National Research Institute in Pulawy, Department of Weed Science and Tillage Systems, and Institute of Technology and Life Sciences–National Research Institute Falenty (Poland). Both phytotests were performed based on direct-contact microbiotests following the protocol recommended by the manufacturer (PhytotestkitTM, MicroBio Tests, Mariakerke, Belgium) with the authors’ modifications.
(§2) The main phytotest equipment (Tigret, Warsaw, Poland) and general methods are described as follows. Test plates (21 × 15.5 × 0.8 cm) provide optimal moisture and enable observation of seed germination and data reading at the end of the test. A single plate is made of polyvinylchloride and composed of both a transparent bottom and a covering part that are stuck together by a set of press buttons. […] Such prepared wet support was covered with a black filter paper that soaked the solution and was applied for further testing.
(§3) In the assay of phytotoxicity (1), the seeds of three dicota plants were used, namely ten seeds of flax or rapeseed and six seeds of sunflower. The seeds were transferred directly on the filter surface by placing them along the line at approximately 1 cm from the ridge at equal distances. Then, the seeds on the filter surface were covered with a covering part and placed in a holder.
(§4) All test plates were put vertically in a special incubator to allow free germination and growth of roots at 25 °C through 5 days in the dark. The test was performed in triplicate for each test plant. The results were expressed as the germination index values (GI, Equation (2)) concerning the plant growth controls in water–ethanol solution for (1). […] The GI was calculated from the formula and categorized as an inhibition for GI values < 90%, as stimulation > 110%, and between 90 and 110% as non-toxic/no effect as proposed in the literature. (2) GI,%=Gs×Ls/Gc×Lc×100% where Gs is seed germination (%), Ls is root elongation (mm) for the test plate, and Gc and Lc are corresponding values for the control plates. Gc was calculated as the proportion of germinated seeds in the test in relation to the number of germinated seeds in the control. The control was the representative number of seeds that germinated on a medium with 0.5% (v/v) of ethanol.

[3] = system: flax (Linum usitatissimum L.) seeds; test: as above; type: in vivo; details: 50 µg/mL; versus water–ethanol 0.5% (v/v) control; <90% inhibition, 90–110% no effect, >110% stimulation
Excerpt: as §1, §2, §3, §4

With `O=C(N/N=C/c1cc(O)ccc1O)c1ccc(O)cc1` [compound 13] the IC50 [1] was 132 ± 9.22 µM and the melting point was 304 °C (dec.).
In the case of `COc1cc(/C=N/NC(=O)c2ccc(O)cc2)ccc1O` [compound 17], the IC50 [1] is reported as 217 ± 61.2 µM and the “Germination index (GI), rapeseed, test 1” value [2] is reported as 81%.
With `CC(C)(C)c1cccc(/C=N/NC(=O)c2ccc(O)cc2)c1O` [compound 18] the IC50 [1] was 11.4 ± 2.54 µM, the “Germination index (GI), rapeseed, test 1” value [2] was 67% and the “Germination index (GI), flax, test 1” value [3] was “stimulating”.
In the case of `O=C(N/N=C/c1cccc(-c2ccccc2)c1O)c1ccc(O)cc1` [compound 19], the IC50 [1] is reported as 3.97 ± 0.15 µM and the “Germination index (GI), rapeseed, test 1” value [2] is reported as “stimulating”.
In the case of `Cc1cc(/C=N/NC(=O)c2ccc(O)cc2)c(O)c(CO)c1` [compound 25], the IC50 [1] is reported as 27.2 ± 4.3 µM, the “Germination index (GI), rapeseed, test 1” value [2] is reported as “stimulated” and the “Germination index (GI), flax, test 1” value [3] is reported as “stimulated”.
With `CC(C)(C)c1cc(/C=N/NC(=O)c2ccc(O)cc2)c(O)c(C(C)(C)C)c1` [compound 27] the IC50 [1] was 11.7 ± 0.69 µM and the “Germination index (GI), rapeseed, test 1” value [2] was 83%.
With `Cc1cc(/C=N/NC(=O)c2ccc(O)cc2)c(O)c(C(C)(C)C)c1` [compound 30] the IC50 [1] was 23.1 ± 3.87 µM.
